Source: patent US20150159131A1, “METHODS AND COMPOSITIONS FOR REGULATING MUSASHI FUNCTION” (Board of Trustees of the University of Arkansas, priority 2011, published 2015)

Experiments:
Format in all cases: cell-based, Xenopus
[1] = tested on: Mos mRNA; assay: Polyadenylation assay of endogenous Mos mRNA (RNA ligation-coupled PCR)
Source text: The increase in PCR product length is specifically due to extension of the poly[A] tail. The primer used to analyze endogenous Xenopus Musashi1 mRNA polyadenylation was [NT] ID NO:24).

[2] = tested on: Musashi1 S322 phosphorylation; assay: Western blot for S322-phosphorylated Musashi1 in oocyte lysates
Description: Xenopus oocytes were isolated and cultured. Oocytes were induced to mature with 2 μg/ml progesterone. The rate of germinal vesicle breakdown (GVBD) was scored morphologically by observing the appearance of a white spot on the animal pole. Because oocytes from different frogs mature at different rates in response to progesterone, the culture times were standardized between experiments to the time taken for 50% of oocytes to undergo GVBD. Where indicated, oocytes were pre-treated with 50 μM MEK inhibitor, UO126 or DMSO vehicle for 30 minutes.
Antisera for phosphorylation specific Musashi1 S322 were generated by immunizing rabbits with the peptide VSSYISAAS(phospho)PAPSTGF (SEQ ID NO:26). The antibodies were affinity purified through a peptide-affinity column and used at 1:1000. Abcam antibodies to Musashi1 were used at 1:1000. Sigma Tubulin antibodies were used at 1:20,000. The phospho-specific Cdc2 antibody was used at 1:1000 and detects the inhibitory Tyr15 phosphorylation. The phospho-specific MAP kinase antibody (Cell Signaling) was used at 1:1000 and detects the activating phosphorylations at Thr202/Tyr204. The GST antibody (Santa Cruz) was used at 1:1000. The Xenopus Ringo antibody was used at 1:1000.
Oocytes were lysed in NP40 lysis buffer containing sodium vanadate and a protease inhibitor cocktail. Where indicated, a portion of the lysate was transferred to STAT-60 for RNA extraction. […]

[3] = tested on: Musashi1 protein; assay: Western blot for endogenous Musashi1 protein accumulation at GVBD50; conditions: at GVBD50, normalized to tubulin, 3 experiments, p<0.01
Description: Oocytes were lysed in NP40 lysis buffer containing sodium vanadate and a protease inhibitor cocktail. Where indicated, a portion of the lysate was transferred to STAT-60 for RNA extraction. Protein lysates were then spun, clarified and transferred immediately to 1× sample buffer. The lysates were run on a 10% Nupage gel and transferred to a 0.2 μm-pore-size nitrocellulose filter. The membrane was blocked with 1% bovine serum albumin in TBST for 60 min at room temperature. Following incubation with primary antibody, filters were incubated with horseradish peroxidase conjugated secondary antibody using enhanced chemiluminescence in a Fluorchem 8000 Advanced Imager. To determine if Musashi is regulated by progesterone, Musashi levels were detected in progesterone stimulated oocytes using methods described in Example 1. […] Lysates from oocytes treated with or without progesterone were analyzed by western blot for endogenous Musashi1 protein accumulation at GVBD50. Quantifications of fold changes in Musashi1 levels (as indicated below western) were normalized to tubulin from the same sample, and levels in immature oocytes (Imm) arbitrarily set to 1.0. The bar graph of FIG. 1B represents data from 3 independent experiments with S.E.M. (Student's t-test; p<0.01).

SMILES | effect on initial polyadenylation or translation of the Mos mRNA ([1]; oocytes treated with MAP kinase signaling inhibitor) | effect on progesterone-stimulated Musashi S322 phosphorylation ([2]; oocytes expressing GST-Musashi1, progesterone stimulated) | Musashi protein levels in response to progesterone stimulation [3] | time at which Mos mRNA polyadenylation initiates after progesterone stimulation ([1]; oocytes expressing GST-Musashi) | maximum progesterone-induced change in phospho-Musashi1 levels normalized to tubulin, relative to immature oocytes ([2]; uninjected oocytes, endogenous Musashi1, n=4, p<0.05)
N#CC(=C(/N)Sc1ccccc1N)/C(C#N)=C(/N)Sc1ccccc1N [UO126] | does not prevent | significant attenuation | – | – | –
CC(=O)[C@H]1CC[C@H]2[C@@H]3CCC4=CC(=O)CC[C@]4(C)[C@H]3CC[C@]12C [progesterone] | – | – | increase | approximately 3 hours | 1.25+/−0.11 fold
